These results are taken from patent US5516782A, “New meso-azacyclic aromatic acid amides and esters as novel serotonergic agents” (G. D. Searle & Co., priority 1995, dated 1996).

Usually EC50 stands for the concentration needed to bring the measured effect to its halfway point. The term Ki denotes a measure of affinity in units of concentration, obtained from inhibition or displacement. Lower therefore signals higher affinity.

In one test the target is 5-HT4 receptor (Rattus norvegicus, UniProt Q62758). Briefly: cell-based. The note with it: rat esophagus tunica muscularis mucosae contracted with carbachol (3 μM); tissues from 5 rats; 37° C.; read-out: EC50 values for agonists at this 5-HT4 receptor. How it is done: Agonist activity was determined utilizing relaxation of carbachol-contracted rat tunica muscularis mucosae. One 2 cm segment of intrathoracic esophagus proximal to the diaphragm was removed from male rats, weighing approximately 300 gm, and the outer muscle layers removed. The inner tunica muscularis mucosa was mounted under 0.2-0.3 g of tension in a tissue bath containing oxygenated Tyrode's solution at 37° C. […] Following a 30 min equilibrium period, tissues were isometrically contracted with carbachol (3 μM) to obtain a tonic contraction. A stable plateau was obtained within 20 min when test compound was added cumulatively to relax the muscle strip. EC50 values were obtained for each agonist in tissues from 5 rats.
Chain of 5-HT4 receptor (Q62758 whole entry): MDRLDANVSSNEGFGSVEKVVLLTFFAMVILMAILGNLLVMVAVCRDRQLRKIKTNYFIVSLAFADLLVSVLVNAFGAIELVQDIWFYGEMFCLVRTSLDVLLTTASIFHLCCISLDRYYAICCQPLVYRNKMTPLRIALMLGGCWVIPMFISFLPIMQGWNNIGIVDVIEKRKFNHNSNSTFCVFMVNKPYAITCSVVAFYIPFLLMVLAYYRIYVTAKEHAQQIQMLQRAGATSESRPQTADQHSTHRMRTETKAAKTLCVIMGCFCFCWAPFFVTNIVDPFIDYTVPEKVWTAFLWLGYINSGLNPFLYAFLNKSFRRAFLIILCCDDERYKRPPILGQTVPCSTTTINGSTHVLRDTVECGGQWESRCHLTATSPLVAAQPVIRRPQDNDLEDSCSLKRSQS

The target in another test is T1, 5-HT3 receptor (Rattus norvegicus, UniProt P35563).
T1 construct: Brain cortices are obtained from male rats and a membrane fraction prepared by standard techniques; from tissue; host or cells: rat brain cortex membranes
T1 sequence (P35563 24-483): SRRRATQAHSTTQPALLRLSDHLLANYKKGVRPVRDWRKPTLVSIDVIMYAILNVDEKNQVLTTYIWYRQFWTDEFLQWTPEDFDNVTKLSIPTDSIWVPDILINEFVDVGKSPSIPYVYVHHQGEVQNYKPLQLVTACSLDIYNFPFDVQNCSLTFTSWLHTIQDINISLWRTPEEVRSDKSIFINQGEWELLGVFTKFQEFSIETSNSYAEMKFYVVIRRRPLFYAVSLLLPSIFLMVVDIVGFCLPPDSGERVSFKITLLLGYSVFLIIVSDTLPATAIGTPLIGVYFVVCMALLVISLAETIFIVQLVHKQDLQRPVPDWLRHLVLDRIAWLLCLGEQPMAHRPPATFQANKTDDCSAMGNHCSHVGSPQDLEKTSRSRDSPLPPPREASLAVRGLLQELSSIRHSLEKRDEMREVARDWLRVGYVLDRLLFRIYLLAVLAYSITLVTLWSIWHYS
In words: Serotonin (5-HT3) radioligand receptor binding assay ([3H]-GR65630, rat brain cortex membranes). How it is done: 5-HT3 antagonism can be determined by the radioligand receptor binding assay as described herein and in the in vivo Bezold-Jarisch reflex procedure.
GR65630 binds to the 5-HT3 receptor. Brain cortices are obtained from male rats and a membrane fraction prepared by standard techniques. 0.04 mg of membrane prep is incubated with 0.2 nM [^3 H]-GR656630 for 60 minutes at 22° C. […] Membranes are filtered and washed 3 times and the filters are counted to determine [3H]-GR65630 specifically bound.*
Kilpatrick G. J., Jones B. J. and Tyers M. B. Identification and distribution of 5-HT3 receptors in rat brain using radioligand binding. Nature, 330: 746-748, 1987.

SMILES strings stand for the structures.

As to `COc1cc(N)c(Cl)cc1C(=O)NCC12CCCN1CCC2` [Example 1, 4-amino-5-chloro-2-methoxy-N-(tetrahydro-1H-pyrrolizin-7a (5H) -ylmethyl)benzamide], the EC50 at 5-HT4 receptor was 422 nM.
Still for that read-out and setting: under `COc1cc(N)c(Cl)cc1C(=O)NCC12CC3CN(CC3C1)C2` [Example 9, 4-amino-5-chloro-N-[(hexahydro-2,5β-methano-1H-3aR,3aα,6aα-cyclopenta[c]pyrrol-5-yl)methyl]-2-methoxybenzamide] stands 216 nM.
Regarding `Cc1nc[nH]c1CCC(=O)c1cn(C)c2ccccc12` [GR65630], the “% Specific Binding” value on 5-HT3 receptor (radioligand, non-specific binding estimated in the presence of 1 uM ICS 205-930) was 70%.
Compound `COc1ccc2[nH]cc(C3=CCNCC3)c2c1` [RU24969] came in with a Ki on 5-HT3 receptor of 1.85 nM.
